Broadly, the EC50 is the concentration at which the effect is half-maximal.

These results are taken from patent US12521381B2, “Anticoccidial agent and method for using the same” (NIHON NOHYAKU CO., LTD., priority 2020, dated 2026).

In this assay the test system is chicken coccidium (Eimeria tenella). Description: Evaluation test of growth inhibition on chicken coccidium (Eimeria tenella). Type of assay: cell-based. To be noted: 48 h, mammal cells infected with sporozoite of chicken coccidium, indirect immunofluorescence, read-out: EC50 (inhibition of growth of chicken coccidium to a mature schizont). As to the method:
Test Example 1: Evaluation Test of Growth Inhibition on Chicken Coccidium (Eimeria tenella) Each of the benzimidazole compounds represented by General Formula (1) or salts of the compounds according to the present invention was diluted with a regulating liquid to a predetermined concentration and placed in a microtiter plate. To the dilution in the plate, mammal cells infected with a sporozoite of chicken coccidium were incubated. Forty-eight hours later, the degree of inhibition on growth of chicken coccidium to a mature schizont was examined by an indirect immunofluorescence technique, and EC50 was determined by calculation.

Where only a bound is given, the exact number is not on record here.

On to `FC(F)(F)C(F)(F)COc1ccc(-c2nc3cc(Br)c(Br)cc3[nH]2)cn1` [Compound 11-5, 5,6-dibromo-2-(6-(2,2,3,3,3-pentafluoropropoxy)pyrid-3-yl)benzimidazole], for which the EC50 is no more than 20 µM.
